Among the test systems are 786-0; A549; CCRF-CEM; COLO 205; HL-60; LOX IMVI; MDA-MB-435; NCI/ADR-RES; OVCAR-8; RPMI-8226; RXF 393; SF-268; SNB-19; TK-10; HOP-92; OVCAR-3; OVCAR-4; SF-295; SK-OV-3; UACC-62.
Test in all cases: DTP human tumour cell line panel, 48 h

The results in this text go back to ChEMBL document CHEMBL1201862, “PubChem BioAssay data set” (2004).

For orientation: GI50 means the concentration that inhibits growth by half.

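All cell lines were grown in 96-well plates and treated with compound for 48 hours. Abbreviation: GI50, concentration required for 50% inhibition of growth.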 Calls of active or inactive are those of the source. No stated cut-off is given here; in the data, active = GI50 up to about 1.1 µM and inactive = higher. Where only a bound is given, the exact number is not on record here.

With `CCOC(O)(NC(=O)C(C(F)(F)F)C(F)(F)F)C(F)(F)F` (configuration not stated), the GI50 in the assay on 786-0, in the assay with A549, in the assay with CCRF-CEM, in the assay with COLO 205, in the assay on HL-60 and with LOX IMVI was > 100 µM (inactive) each time. The GI50 in the assay on MDA-MB-435, with NCI/ADR-RES, with OVCAR-8, in the assay with RPMI-8226, in the assay with RXF 393 and in the assay with SF-268 was > 100 µM (inactive) each time. Moreover, the GI50 in the assay with SNB-19 and in the assay on TK-10 was > 100 µM (inactive) each time.
With `Cn1nc(-c2ccc(S(=O)(=O)N/C(=N/c3ccc(Cl)cc3)NN)s2)cc1C(F)(F)F`, the GI50 in the assay with 786-0 was 14.9 µM (inactive); in the assay on A549, 15 µM (inactive); in the assay with COLO 205 it was 17.1 µM (inactive); with HL-60 it was < 0.01 µM (active); with HOP-92, 20.4 µM (inactive); with LOX IMVI, 18.3 µM (inactive). For the same compound, the GI50 in the assay with NCI/ADR-RES is 21.8 µM (inactive); with OVCAR-3, 19.7 µM (inactive); in the assay on OVCAR-4, 15.9 µM (inactive); in the assay on OVCAR-8 it was 19.6 µM (inactive); in the assay with RPMI-8226, 21.3 µM (inactive); with RXF 393, 11.1 µM (inactive). Further, the GI50 in the assay with SF-268 is 17.7 µM (inactive); in the assay on SF-295 it was 16.2 µM (inactive); in the assay with SK-OV-3, 20.9 µM (inactive); in the assay on SNB-19 it was 16.5 µM (inactive); in the assay with TK-10 it was 19.1 µM (inactive); in the assay on UACC-62 it was 16.9 µM (inactive).
Take `NCCCC[C@H](N)C(=O)Nc1ccc(-c2nc3ccccc3s2)cc1Cl`: the GI50 was 3.05 µM (inactive) in the assay on 786-0; 2.96 µM (inactive) in the assay on A549; 3.28 µM (inactive) in the assay on CCRF-CEM; 4.91 µM (inactive) in the assay on COLO 205; 18.8 µM (inactive) in the assay on HOP-92; 1.36 µM (inactive) in the assay on LOX IMVI. The GI50 is 4.9 µM (inactive) in the assay with MDA-MB-435; 16.5 µM (inactive) with NCI/ADR-RES; 0.247 µM (active) in the assay on OVCAR-3; 7.71 µM (inactive) with OVCAR-8; 12.4 µM (inactive) with RXF 393; 8.34 µM (inactive) with SF-268. Further, the GI50 in the assay on SF-295 was 5 µM (inactive); in the assay with SK-OV-3, 16.3 µM (inactive); in the assay on SNB-19 it was 12.6 µM (inactive); in the assay on TK-10, 0.0353 µM (active); in the assay with UACC-62, 14.6 µM (inactive).
Turning to `COc1ccc(C2NC(N)=C(C#N)C3=C2C(C)CCC3)cc1OC` (configuration not stated), the GI50 was 77.1 µM (inactive) in the assay with 786-0; 14.6 µM (inactive) with CCRF-CEM; 37.3 µM (inactive) with COLO 205; 14.5 µM (inactive) with HL-60; 35.5 µM (inactive) in the assay with LOX IMVI; 63.5 µM (inactive) in the assay with MDA-MB-435. In addition, the GI50 in the assay with NCI/ADR-RES was 35.2 µM (inactive); in the assay with OVCAR-3, 31.7 µM (inactive); with OVCAR-8, 75.7 µM (inactive); in the assay with RPMI-8226 it was 10.2 µM (inactive); in the assay on RXF 393, > 100 µM (inactive); in the assay on SF-268, > 100 µM (inactive). The GI50 with SF-295 is 12.3 µM (inactive); in the assay with SK-OV-3 it was 75.3 µM (inactive); in the assay on SNB-19, > 100 µM (inactive); in the assay with TK-10 it was 92.3 µM (inactive); with UACC-62 it was 56 µM (inactive).
With `CCOC(=O)c1c(-c2ccc(Br)cc2)ccn1C`, the GI50 in the assay on 786-0, with A549, with CCRF-CEM, in the assay on COLO 205, in the assay on HL-60 and in the assay on LOX IMVI was > 10 µM (inactive) each time. The GI50 in the assay on MDA-MB-435, with NCI/ADR-RES, in the assay with OVCAR-3, in the assay with OVCAR-4, in the assay on OVCAR-8 and in the assay with RPMI-8226 was > 10 µM (inactive) in each case. Besides, the GI50 was 4.65 µM (inactive) in the assay with RXF 393; > 10 µM (inactive) in the assay on SF-268; > 10 µM (inactive) in the assay on SF-295; > 10 µM (inactive) in the assay on SK-OV-3; > 10 µM (inactive) in the assay on SNB-19; > 10 µM (inactive) with TK-10. In the assay on UACC-62, the GI50 is > 10 µM (inactive).
`Brc1cccc(C2(CCCC3(c4cccc(Br)n4)OCCO3)OCCO2)n1`: the GI50 with 786-0 was 59.7 µM (inactive); in the assay on A549, > 100 µM (inactive); in the assay with COLO 205, > 100 µM (inactive); in the assay with HOP-92 it was > 100 µM (inactive); with LOX IMVI it was > 100 µM (inactive); in the assay on MDA-MB-435 it was > 100 µM (inactive). The GI50 in the assay on NCI/ADR-RES is > 100 µM (inactive); with OVCAR-3 it was > 100 µM (inactive); in the assay with OVCAR-4 it was > 100 µM (inactive); with RPMI-8226, > 100 µM (inactive); with RXF 393 it was 72.4 µM (inactive); with SF-268, 21.2 µM (inactive). Also, the GI50 was 68.7 µM (inactive) with SF-295, > 100 µM (inactive) in the assay with SK-OV-3, > 100 µM (inactive) in the assay with SNB-19 and > 100 µM (inactive) with TK-10.
Take `CC(C)C(=O)OCC1OC(n2c(Br)nc3c(=O)[nH]c(N)nc32)C(OC(=O)C(C)C)C1OC(=O)C(C)C` (configuration not stated): the GI50 with 786-0 was 23.1 µM (inactive); in the assay on A549 it was 35.6 µM (inactive); with COLO 205, 90.4 µM (inactive); in the assay on HOP-92 it was > 100 µM (inactive); with LOX IMVI, 19.8 µM (inactive); in the assay on NCI/ADR-RES, > 100 µM (inactive). Moreover, the GI50 in the assay on OVCAR-3 was > 100 µM (inactive); with OVCAR-8, 31.4 µM (inactive); with SF-268, 37.1 µM (inactive); in the assay on SF-295, 21.2 µM (inactive); in the assay with SK-OV-3 it was 30.3 µM (inactive); in the assay on SNB-19 it was 81.8 µM (inactive). In addition, the GI50 in the assay with UACC-62 was 31.8 µM (inactive).
For the compound `COc1ccc(C2=C(OC(=O)N(C)C)c3cccn3-c3cc(Cl)ccc3S2)cc1`, the GI50 is > 10 µM (inactive) in the assay on 786-0; > 10 µM (inactive) with A549; 8.07 µM (inactive) in the assay with CCRF-CEM; > 10 µM (inactive) in the assay on COLO 205; 6.1 µM (inactive) in the assay on HL-60; 6.78 µM (inactive) in the assay on HOP-92. Moreover, the GI50 in the assay with LOX IMVI was > 10 µM (inactive); with MDA-MB-435 it was > 10 µM (inactive); in the assay on OVCAR-4, 6.79 µM (inactive); in the assay on OVCAR-8, > 10 µM (inactive); in the assay on RPMI-8226, 2.73 µM (inactive); in the assay with RXF 393 it was > 10 µM (inactive). Further, the GI50 in the assay on SF-268, in the assay with SF-295, in the assay on SK-OV-3, in the assay on TK-10 and in the assay with UACC-62 was > 10 µM (inactive) throughout.
Consider `CC(=O)C1(C(=O)C(=[N+]=[N-])S(=O)(=O)c2ccccc2)CC1`, for which the GI50 in the assay with 786-0 was > 100 µM (inactive); in the assay on A549 it was > 100 µM (inactive); in the assay with CCRF-CEM, 40.2 µM (inactive); in the assay on COLO 205, > 100 µM (inactive); with HL-60 it was 74.1 µM (inactive); in the assay on LOX IMVI it was > 100 µM (inactive). Also, the GI50 in the assay on MDA-MB-435 was > 100 µM (inactive); in the assay on NCI/ADR-RES, > 100 µM (inactive); in the assay with OVCAR-3, > 100 µM (inactive); with OVCAR-8, > 100 µM (inactive); with RPMI-8226, 83.2 µM (inactive); in the assay with RXF 393, > 100 µM (inactive). Also, the GI50 in the assay with SF-268, with SF-295, with SNB-19, in the assay with TK-10 and with UACC-62 was > 100 µM (inactive) throughout.
For the compound `O=C(c1ccco1)C1CC(c2ccc3ccccc3c2O)=NN1` (configuration not stated), the GI50 was 98.9 µM (inactive) with 786-0; 47 µM (inactive) with A549; 16.8 µM (inactive) in the assay on CCRF-CEM; 66.1 µM (inactive) in the assay with COLO 205; > 100 µM (inactive) with HOP-92; 56.6 µM (inactive) in the assay with MDA-MB-435. Further, the GI50 was 91.4 µM (inactive) in the assay with NCI/ADR-RES; 57.3 µM (inactive) in the assay with OVCAR-3; > 100 µM (inactive) in the assay on OVCAR-4; 83.2 µM (inactive) with OVCAR-8; 42.9 µM (inactive) in the assay on RPMI-8226; > 100 µM (inactive) in the assay on RXF 393. Further, the GI50 is > 100 µM (inactive) with SF-268; 55.8 µM (inactive) with SF-295; > 100 µM (inactive) in the assay on SK-OV-3; > 100 µM (inactive) with TK-10; > 100 µM (inactive) in the assay with UACC-62.
With `CCCCCCCCCCCCCCCC(=O)OCC1OC(OC)C2NP(=O)(N(CCCl)CCCl)OC1C2O` (configuration not stated), the GI50 in the assay with 786-0 was 0.44 µM (active); in the assay with A549, 6.11 µM (inactive); with CCRF-CEM, 0.142 µM (active); in the assay with COLO 205, 4.22 µM (inactive); with HL-60 it was 0.117 µM (active); in the assay on HOP-92, 0.822 µM (active). Also, the GI50 was 1.28 µM (inactive) in the assay on LOX IMVI; 7.55 µM (inactive) in the assay on MDA-MB-435; 3.16 µM (inactive) in the assay with OVCAR-3; 8.51 µM (inactive) in the assay on OVCAR-4; 2.51 µM (inactive) in the assay on OVCAR-8; 2.51 µM (inactive) in the assay on RPMI-8226. Also, the GI50 was 1.68 µM (inactive) in the assay with RXF 393; 1.67 µM (inactive) with SF-268; 4.48 µM (inactive) with SF-295; 11.5 µM (inactive) in the assay on SK-OV-3; 2.61 µM (inactive) in the assay with SNB-19; 10.9 µM (inactive) in the assay with TK-10. The GI50 in the assay with UACC-62 is 1.23 µM (inactive).
In the case of `CCOC1=NC(C(F)(F)F)(C(F)(F)F)N=C(/N=C(/N)N(C)C(C(C)C)P(=O)(OC(C)C)OC(C)C)O1` (configuration not stated), the GI50 was > 100 µM (inactive) in the assay on 786-0; > 100 µM (inactive) in the assay with A549; 23.8 µM (inactive) with CCRF-CEM; > 100 µM (inactive) with COLO 205; 27.7 µM (inactive) with HL-60; 81.5 µM (inactive) with LOX IMVI. In addition, the GI50 with MDA-MB-435 is > 100 µM (inactive); in the assay on NCI/ADR-RES it was 31.3 µM (inactive); in the assay with OVCAR-3, 67.6 µM (inactive); in the assay on OVCAR-8, 48.5 µM (inactive); with RPMI-8226 it was 45.9 µM (inactive); with RXF 393, 41 µM (inactive). Also, the GI50 in the assay with SF-268 is 48.4 µM (inactive); in the assay with SF-295, 83.8 µM (inactive); with SK-OV-3, > 100 µM (inactive); in the assay with SNB-19, > 100 µM (inactive); with TK-10, > 100 µM (inactive); with UACC-62 it was 54.7 µM (inactive).
